Data reported in ChEMBL document CHEMBL1201862, “PubChem BioAssay data set” (2004).
Where “and” joins values, the source holds several entries; their conditions need not be identical. Identical values can stand only once. Calls of active or inactive are those of the source.

What was measured:
[1] = system: Streptococcus; test: Streptococcus pyogenes growth inhibition counter-screen, dose response, counter-screen for streptokinase expression inhibitor project, luminescence, BacTiter-Glo, strain UMAA2166 (AID 2477); type: functional, organism-based
[2] = target: T1, Streptokinase A (Streptococcus pyogenes serotype M1, UniProt P10520); test: Absorbance Microorganism-Based Dose Response Follow up to Identify Inhibitors of Streptokinase Expression. [Related pubchem assays: 1677 (Project Summary), 1915, 1914, 1902 (Retest at Dose), 1900 (Counter Screen), 1662 (Primary HTS)]; type: functional, Streptococcus pyogenes M1 GAS
T1 sequence (P10520 whole entry): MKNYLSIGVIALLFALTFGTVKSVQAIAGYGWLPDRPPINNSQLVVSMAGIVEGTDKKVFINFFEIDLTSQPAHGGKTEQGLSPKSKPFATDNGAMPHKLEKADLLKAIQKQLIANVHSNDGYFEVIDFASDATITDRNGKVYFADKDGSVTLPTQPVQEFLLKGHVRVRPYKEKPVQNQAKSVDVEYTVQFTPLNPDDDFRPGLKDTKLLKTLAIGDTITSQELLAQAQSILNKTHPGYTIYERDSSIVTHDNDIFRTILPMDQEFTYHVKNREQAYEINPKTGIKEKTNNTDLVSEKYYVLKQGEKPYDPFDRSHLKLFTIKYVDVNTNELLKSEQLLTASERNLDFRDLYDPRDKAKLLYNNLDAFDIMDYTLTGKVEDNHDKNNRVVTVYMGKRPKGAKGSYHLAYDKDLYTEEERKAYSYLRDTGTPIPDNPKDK

[3] = cytotoxicity in HEK-293T cells, dose response, cytotoxicity control for TCR NF-kB inhibitor project, luminescence, T-cell screen hits (AID 489026); type: functional, cell-based;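 further: cells exposed to compound about 14 hours before the viability readout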
[4] = inhibitors of SNCA 5'UTR-driven translation, confirmation, luminescence, H4 neuroglioblastoma cells, dose confirmation (AID 2454); type: functional, cell-based;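 further: H4 neuroglioblastoma cells carrying an alpha-synuclein 5'UTR luciferase reporter; potency for inhibition of the luciferase signal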
[5] = HEp-2 cell cytotoxicity, dose response, cytotoxicity control for RSV inhibitor project, HTS (AID 2410); type: functional; conditions: human respiratory syncytial virus
[6] = system: BJ; test: cytotoxicity toward BJ-TERT-LT-ST fibroblasts, dose response, cell-based, RAS-independent, luminescence (AID 1935); type: functional; conditions: Homo sapiens;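 further: BJ fibroblasts immortalized with TERT plus LT and ST oncogenes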
[7] = inhibitors of SNCA 5'UTR-driven reporter translation, confirmation, H4 neuroglioma cells, luminescence (AID 1988); type: functional, cell-based
[8] = cells; type: functional, cell-based
[9] = system: BJ; test: cytotoxicity toward BJ-TERT fibroblasts, dose response, cell-based, RAS-independent, luminescence (AID 1933); type: functional; conditions: Homo sapiens
[10] = cytotoxicity toward DRD oncogenic fibroblasts, dose response, cell-based, non-viral oncogenic, luminescence (AID 1934); type: functional; conditions: Homo sapiens
[11] = luciferase reporter signal reduction – luminescence, H4-C neuroglioblastoma cells, dose response (AID 2458); type: functional, cell-based;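 further: H4 neuroglioblastoma cells stably carrying a luciferase reporter gene fusion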
[12] = inhibitors of firefly luciferase expression or activity, dose response, H4 neuroglioma cells, luminescence (AID 1990); type: functional, cell-based
[13] = system: BJ; test: cells; type: functional, cell-based; conditions: Homo sapiens
[14] = Luminescence Cell-Based Dose Response HTS to Identify Inhibitors of 5'UTR Stem-Loop Driven Prion Protein mRNA Translation in H4 Neuroglioblastoma Cells. [Related pubchem assays: 1827 (Project Summary), 1813 (Primary HTS)]; type: functional
[15] = target: Luciferin 4-monooxygenase (Photinus pyralis, UniProt P08659); test: Counter Screen for Luciferase-based Assay Positives. [Related pubchem assays: 620, 618, 411 ]
Chain of Luciferin 4-monooxygenase (P08659 whole entry): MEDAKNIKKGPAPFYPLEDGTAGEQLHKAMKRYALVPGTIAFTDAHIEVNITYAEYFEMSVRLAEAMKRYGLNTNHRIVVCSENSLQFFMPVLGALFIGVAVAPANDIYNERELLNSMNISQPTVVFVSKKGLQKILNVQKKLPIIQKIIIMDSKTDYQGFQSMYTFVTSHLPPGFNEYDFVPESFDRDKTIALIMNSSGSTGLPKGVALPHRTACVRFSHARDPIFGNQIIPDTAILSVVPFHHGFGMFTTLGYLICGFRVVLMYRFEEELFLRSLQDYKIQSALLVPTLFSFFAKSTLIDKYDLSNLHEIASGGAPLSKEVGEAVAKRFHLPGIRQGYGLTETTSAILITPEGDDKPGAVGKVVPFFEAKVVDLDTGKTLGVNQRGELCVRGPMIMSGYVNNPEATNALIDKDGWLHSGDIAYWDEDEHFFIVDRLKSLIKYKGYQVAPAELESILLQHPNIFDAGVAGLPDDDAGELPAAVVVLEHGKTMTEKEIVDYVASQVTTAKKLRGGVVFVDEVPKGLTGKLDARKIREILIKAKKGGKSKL

[16] = system: HT-1080; test: cytotoxicity in HT1080 fibrosarcoma cells, cell-based, fluorescence readout (AID 620); type: functional; conditions: Homo sapiens
[17] = system: HEK293; test: Fluorescence-based counterscreen for potentiators or agonists of NPY-Y2: cell-based high-throughput dose response assay to identify inhibitors of cyclic nucleotide gated ion channel (CNGC) activity. In this assay, the parental HEK293 cell line transfected with a cyclic-nucleotide gated ion channel (CNGC)-based cAMP sensor is used to measure inhibition of isoproterenol-induced CNGC activity by test compound.; type: functional; conditions: Homo sapiens
[18] = target: T2, Neuropeptide Y receptor type 2 (Homo sapiens, UniProt P49146); test: NPY-Y2 antagonist potency, selectivity check, dose response, counter-screen for NPY-Y1 antagonist project, cell-based (AID 1278); type: functional
T2 sequence (P49146 whole entry): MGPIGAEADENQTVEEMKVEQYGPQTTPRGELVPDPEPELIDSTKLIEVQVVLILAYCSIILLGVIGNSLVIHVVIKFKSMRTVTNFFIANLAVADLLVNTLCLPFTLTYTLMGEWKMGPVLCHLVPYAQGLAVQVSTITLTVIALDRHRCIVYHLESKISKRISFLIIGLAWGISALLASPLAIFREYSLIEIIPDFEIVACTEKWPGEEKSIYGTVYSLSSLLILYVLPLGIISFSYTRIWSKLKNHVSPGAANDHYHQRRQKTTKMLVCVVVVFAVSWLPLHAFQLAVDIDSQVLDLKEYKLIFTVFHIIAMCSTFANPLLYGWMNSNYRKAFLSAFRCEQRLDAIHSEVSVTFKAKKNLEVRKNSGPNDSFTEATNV

[19] = system: HEK293; test: cells; conditions: Homo sapiens
[20] = HepG2 cell cytotoxicity, dose response, cytotoxicity control for Shn3 inhibitor project, CellTiter-Glo, cherry-picked (AID 624134); type: functional, cell-based
[21] = Shn3 3'UTR reporter inhibitors, dose response, cell-based, Clone20 osteoblasts, firefly luciferase, cherry-picked (AID 624132); type: functional;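 further: firefly luciferase luminescence from reporter carrying the Shn3 3'UTR in osteoblasts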
[22] = target: T2, Neuropeptide Y receptor type 2; test: Fluorescence-based cell-based high-throughput dose response assay for agonists of NPY-Y2. [Related pubchem assays: 1703 (Screening assay (CNGC inhibitors).), 1359 (Screening assay (NPY-Y2 potentiators or agonists).), 1304 (Screening assay (NPY-Y1 potentiators or agonists).), 1710 (Screening assay (NPY-Y2 agonists).), 1791 (Summary AID.)]; type: functional
[23] = system: HEK293; test: cells; conditions: Homo sapiens; remark: listed apart in the source
[24] = target: E3 ubiquitin-protein ligase Mdm2 (Homo sapiens, UniProt Q00987); test: enhancers of MDM2-luciferase reporter signal, concentration-effect titration, project on inhibitors of MDM2 ubiquitin ligase, cellular assay, luminescent readout, 384-well plate format (AID 1394); type: functional;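 further: MDM2 E3 inhibitors raise luminescence so EC50 is for signal enhancement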
Chain of E3 ubiquitin-protein ligase Mdm2 (Q00987 whole entry): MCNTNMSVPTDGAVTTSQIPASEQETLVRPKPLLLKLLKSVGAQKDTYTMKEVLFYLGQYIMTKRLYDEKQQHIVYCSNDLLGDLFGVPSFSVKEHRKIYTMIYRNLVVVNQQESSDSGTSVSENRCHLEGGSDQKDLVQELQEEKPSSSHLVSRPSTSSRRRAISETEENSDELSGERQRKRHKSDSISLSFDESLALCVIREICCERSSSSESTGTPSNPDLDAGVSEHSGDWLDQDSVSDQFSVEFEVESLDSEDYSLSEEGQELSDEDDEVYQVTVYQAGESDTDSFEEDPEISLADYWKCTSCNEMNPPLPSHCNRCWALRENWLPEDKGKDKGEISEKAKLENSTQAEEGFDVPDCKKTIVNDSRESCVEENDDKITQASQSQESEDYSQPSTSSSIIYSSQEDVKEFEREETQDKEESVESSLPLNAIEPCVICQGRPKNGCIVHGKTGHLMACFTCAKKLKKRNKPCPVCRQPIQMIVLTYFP

[25] = control 3'UTR Renilla luciferase suppression, dose response, counter-screen for Shn3 inhibitor project, cell-based, Clone20-Shn3RL, cherry-picked (AID 624133); type: functional
[26] = target: T3, Neuropeptide Y receptor type 1 (Homo sapiens, UniProt P25929); test: NPY-Y1 receptor antagonist potency, dose response, cell-based (AID 1277); type: functional
T3 sequence (P25929 whole entry): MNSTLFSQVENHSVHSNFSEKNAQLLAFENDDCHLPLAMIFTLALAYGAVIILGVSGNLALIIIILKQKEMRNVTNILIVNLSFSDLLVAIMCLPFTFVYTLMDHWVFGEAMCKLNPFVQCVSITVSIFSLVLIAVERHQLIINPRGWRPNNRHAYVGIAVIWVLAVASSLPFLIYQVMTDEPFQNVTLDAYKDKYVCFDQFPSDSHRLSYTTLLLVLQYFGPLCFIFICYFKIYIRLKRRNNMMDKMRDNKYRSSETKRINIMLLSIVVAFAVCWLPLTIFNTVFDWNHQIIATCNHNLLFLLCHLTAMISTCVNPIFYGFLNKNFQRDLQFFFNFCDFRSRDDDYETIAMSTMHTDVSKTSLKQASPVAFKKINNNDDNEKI

[27] = target: T4, Heat shock factor protein 1 (Mus musculus, UniProt P38532); test: HSF1 potentiators in luciferase reporter cells, confirmation, cell-based, NIH3T3, luminescence, dose retest (AID 435004); type: functional;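 further: stress induced by proteasome inhibitor MG132 added 30 min after compound; luciferase reporter driven by HSF1 response element in NIH3T3 cells; actives raise luminescence as potentiators of the MG132 stress response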
T4 sequence (P38532 whole entry): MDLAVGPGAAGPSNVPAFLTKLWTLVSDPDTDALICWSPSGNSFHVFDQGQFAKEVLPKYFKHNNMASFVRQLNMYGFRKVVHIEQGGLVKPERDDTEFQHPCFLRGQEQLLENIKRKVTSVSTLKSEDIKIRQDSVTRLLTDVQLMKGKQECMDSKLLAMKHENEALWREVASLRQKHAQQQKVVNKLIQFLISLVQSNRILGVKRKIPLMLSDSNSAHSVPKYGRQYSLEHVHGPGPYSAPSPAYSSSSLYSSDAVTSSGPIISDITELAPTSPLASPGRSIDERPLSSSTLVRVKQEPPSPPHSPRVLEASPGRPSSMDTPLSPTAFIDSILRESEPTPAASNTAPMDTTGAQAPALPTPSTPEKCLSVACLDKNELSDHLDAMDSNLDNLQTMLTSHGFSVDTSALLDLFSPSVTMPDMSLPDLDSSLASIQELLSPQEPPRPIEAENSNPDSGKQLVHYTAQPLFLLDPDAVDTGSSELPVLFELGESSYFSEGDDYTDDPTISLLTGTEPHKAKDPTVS

[28] = target: T3, Neuropeptide Y receptor type 1; test: Fluorescence-based counterscreen for agonists of NPY-Y2: cell-based high-throughput dose response assay for agonists of NPY-Y1.; type: functional
[29] = system: BJ; test: cytotoxicity toward Ras-transformed BJeLR fibroblasts, dose response, cell-based, alamar blue fluorescence, cherrypicked samples (AID 2631); type: functional; conditions: Homo sapiens;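 further: confirmatory dose-response assay in RAS-dependent BJ fibroblasts engineered with TERT, LT and ST, with cytotoxicity read by fluorescence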
[30] = Luminescence-based counterscreen assay for KLF5 inhibitors: dose response cell-based high throughput screening assay to identify cytotoxic compounds using the IEC-6 intestinal epithelial cell line. [Related pubchem assays: 1700 (Primary screen.), 1834 (Confirmation screen.), 1858 (Summary AID.), 1905 (Counterscreen.)]; type: functional
[31] = target: G2/mitotic-specific cyclin-B1 (Homo sapiens, UniProt P14635); test: Counterscreen assay for inhibitors of Wee1 degradation: dose response cell-based assay to identify inhibitors of cyclin B degradation. [Related pubchem assays: 1410, 1321 ]; type: functional
[32] = target: T5, Voltage-gated N-type calcium channel alpha-1B subunit/Amyloid beta A4 precursor protein-binding family A member 1 (Homo sapiens, UniProt Q00975+Q02410); type: protein assay
T5 sequence (Q00975 whole entry): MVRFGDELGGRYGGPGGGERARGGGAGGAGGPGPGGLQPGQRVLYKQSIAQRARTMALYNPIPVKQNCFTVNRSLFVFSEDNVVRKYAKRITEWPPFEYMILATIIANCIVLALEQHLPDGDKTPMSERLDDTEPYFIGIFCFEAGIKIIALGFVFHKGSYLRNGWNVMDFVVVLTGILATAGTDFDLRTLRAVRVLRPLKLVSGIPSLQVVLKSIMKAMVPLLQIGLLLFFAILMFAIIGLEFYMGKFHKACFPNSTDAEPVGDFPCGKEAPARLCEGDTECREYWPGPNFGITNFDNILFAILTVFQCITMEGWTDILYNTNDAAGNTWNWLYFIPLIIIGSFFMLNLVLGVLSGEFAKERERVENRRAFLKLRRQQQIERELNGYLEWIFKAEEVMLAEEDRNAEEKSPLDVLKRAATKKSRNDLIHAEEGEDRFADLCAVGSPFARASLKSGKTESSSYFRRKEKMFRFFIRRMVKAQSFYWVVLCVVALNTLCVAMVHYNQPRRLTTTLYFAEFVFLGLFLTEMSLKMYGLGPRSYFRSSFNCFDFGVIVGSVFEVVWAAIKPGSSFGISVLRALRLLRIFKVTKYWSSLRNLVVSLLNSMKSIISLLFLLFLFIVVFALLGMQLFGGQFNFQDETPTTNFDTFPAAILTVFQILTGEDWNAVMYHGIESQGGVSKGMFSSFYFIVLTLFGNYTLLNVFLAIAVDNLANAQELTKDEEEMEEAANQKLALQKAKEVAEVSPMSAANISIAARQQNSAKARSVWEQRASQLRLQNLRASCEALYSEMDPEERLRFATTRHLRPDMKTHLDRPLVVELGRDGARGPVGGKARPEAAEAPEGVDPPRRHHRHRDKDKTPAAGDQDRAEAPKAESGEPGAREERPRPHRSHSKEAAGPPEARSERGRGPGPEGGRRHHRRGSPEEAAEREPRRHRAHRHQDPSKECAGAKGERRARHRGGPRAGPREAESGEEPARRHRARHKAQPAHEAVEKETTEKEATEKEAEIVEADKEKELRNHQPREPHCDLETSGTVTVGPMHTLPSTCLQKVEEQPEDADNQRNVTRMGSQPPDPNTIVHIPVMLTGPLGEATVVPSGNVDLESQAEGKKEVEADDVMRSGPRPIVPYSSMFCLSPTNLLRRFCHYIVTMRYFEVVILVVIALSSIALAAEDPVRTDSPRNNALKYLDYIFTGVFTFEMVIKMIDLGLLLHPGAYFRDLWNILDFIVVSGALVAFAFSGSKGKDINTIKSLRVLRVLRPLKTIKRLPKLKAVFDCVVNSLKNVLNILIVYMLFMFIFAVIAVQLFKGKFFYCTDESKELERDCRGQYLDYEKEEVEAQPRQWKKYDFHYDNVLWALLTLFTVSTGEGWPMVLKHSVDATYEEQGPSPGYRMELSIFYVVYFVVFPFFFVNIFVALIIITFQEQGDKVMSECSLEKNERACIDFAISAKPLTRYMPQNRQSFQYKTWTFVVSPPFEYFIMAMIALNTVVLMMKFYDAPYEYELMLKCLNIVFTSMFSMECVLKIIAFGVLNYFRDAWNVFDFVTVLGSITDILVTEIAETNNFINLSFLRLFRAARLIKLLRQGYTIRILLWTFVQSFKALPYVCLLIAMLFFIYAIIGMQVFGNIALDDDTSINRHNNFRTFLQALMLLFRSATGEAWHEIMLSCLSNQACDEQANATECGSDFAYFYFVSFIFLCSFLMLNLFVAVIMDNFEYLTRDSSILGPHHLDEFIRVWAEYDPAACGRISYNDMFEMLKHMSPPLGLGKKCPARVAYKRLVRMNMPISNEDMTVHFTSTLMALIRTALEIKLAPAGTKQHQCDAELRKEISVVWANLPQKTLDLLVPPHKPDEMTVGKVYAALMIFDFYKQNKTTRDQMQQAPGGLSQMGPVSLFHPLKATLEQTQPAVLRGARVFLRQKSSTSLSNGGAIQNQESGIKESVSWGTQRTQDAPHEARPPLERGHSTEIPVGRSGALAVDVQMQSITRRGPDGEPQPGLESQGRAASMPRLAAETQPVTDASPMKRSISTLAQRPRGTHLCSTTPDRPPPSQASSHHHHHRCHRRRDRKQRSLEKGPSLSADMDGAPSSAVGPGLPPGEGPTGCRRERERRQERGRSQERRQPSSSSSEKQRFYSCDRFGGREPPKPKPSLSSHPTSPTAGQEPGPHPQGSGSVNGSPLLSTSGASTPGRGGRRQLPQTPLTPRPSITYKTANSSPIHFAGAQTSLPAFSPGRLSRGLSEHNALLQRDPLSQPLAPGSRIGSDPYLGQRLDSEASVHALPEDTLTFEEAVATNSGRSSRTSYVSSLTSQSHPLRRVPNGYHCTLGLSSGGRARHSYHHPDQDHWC
T5 sequence (Q02410 whole entry): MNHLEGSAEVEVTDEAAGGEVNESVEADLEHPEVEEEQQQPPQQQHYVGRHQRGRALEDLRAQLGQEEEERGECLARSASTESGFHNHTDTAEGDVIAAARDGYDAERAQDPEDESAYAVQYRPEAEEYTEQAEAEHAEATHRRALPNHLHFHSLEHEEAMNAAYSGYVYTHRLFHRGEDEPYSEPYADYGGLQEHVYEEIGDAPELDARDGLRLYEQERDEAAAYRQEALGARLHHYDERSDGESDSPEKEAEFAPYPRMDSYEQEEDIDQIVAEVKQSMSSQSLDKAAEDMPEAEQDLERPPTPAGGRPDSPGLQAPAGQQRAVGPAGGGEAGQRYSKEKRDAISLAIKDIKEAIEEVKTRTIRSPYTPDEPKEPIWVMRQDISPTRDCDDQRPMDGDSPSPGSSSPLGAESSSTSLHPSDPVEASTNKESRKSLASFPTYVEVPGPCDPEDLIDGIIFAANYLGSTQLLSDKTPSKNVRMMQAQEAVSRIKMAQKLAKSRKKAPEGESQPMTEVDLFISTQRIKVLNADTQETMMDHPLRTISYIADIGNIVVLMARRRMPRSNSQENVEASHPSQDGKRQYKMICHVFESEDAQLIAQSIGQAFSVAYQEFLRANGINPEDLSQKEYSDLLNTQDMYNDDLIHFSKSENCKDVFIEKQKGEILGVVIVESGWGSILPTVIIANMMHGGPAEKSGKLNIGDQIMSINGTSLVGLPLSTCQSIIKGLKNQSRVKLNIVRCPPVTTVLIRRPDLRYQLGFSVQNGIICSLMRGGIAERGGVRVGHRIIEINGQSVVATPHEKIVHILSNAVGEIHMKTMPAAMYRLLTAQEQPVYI

[33] = target: Wee1-like protein kinase (Homo sapiens, UniProt P30291); test: Dose Response Cell-based Assay for Inhibitors of Wee1 Degradation. [Related pubchem assays: 1410, 1321 ]; type: functional
[34] = target: T5, Voltage-gated N-type calcium channel alpha-1B subunit/Amyloid beta A4 precursor protein-binding family A member 1; type: protein assay; remark: listed apart in the source
[35] = target: Cytochrome P450 3A4 (Homo sapiens, UniProt P08684); conditions: Potency;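 further: confirmatory qHTS run detecting inhibitors and substrates of CYP3A4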
Chain of Cytochrome P450 3A4 (P08684 whole entry): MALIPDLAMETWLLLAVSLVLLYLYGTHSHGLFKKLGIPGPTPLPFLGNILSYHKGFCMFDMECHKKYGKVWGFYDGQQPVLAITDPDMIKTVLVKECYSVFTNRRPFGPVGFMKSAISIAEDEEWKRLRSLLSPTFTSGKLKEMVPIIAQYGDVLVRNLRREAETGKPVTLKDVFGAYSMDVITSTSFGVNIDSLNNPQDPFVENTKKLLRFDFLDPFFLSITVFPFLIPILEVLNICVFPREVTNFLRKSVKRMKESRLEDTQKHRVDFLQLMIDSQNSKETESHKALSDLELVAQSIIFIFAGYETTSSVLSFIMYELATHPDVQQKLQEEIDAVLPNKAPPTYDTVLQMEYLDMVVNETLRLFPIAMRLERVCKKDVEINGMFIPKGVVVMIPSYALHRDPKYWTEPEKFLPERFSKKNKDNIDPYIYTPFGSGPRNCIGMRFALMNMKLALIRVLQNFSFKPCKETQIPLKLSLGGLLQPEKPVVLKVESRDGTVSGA

[36] = target: Cytochrome P450 2D6 (Homo sapiens, UniProt P10635); test: qHTS Assay for Inhibitors and Substrates of Cytochrome P450 2D6. [Related pubchem assays: 410 ]; type: ADME; conditions: read-out: Potency

SMILES: COc1cccc(-c2nc(OC(C)C)c3ccccc3n2)c1
- EC50 [1]: 68.7 µM (active)
- EC50 [2]: 8.2 µM (active)

SMILES: CC(=O)c1sc2c(c1OC(=O)c1ccc(Cl)cc1Cl)c(=O)n(-c1ccccc1)c(=S)n2-c1ccccc1
- IC50 [3]: > 80 µM (inactive)
- EC50 [4]: 0.716 µM (active)
- CC50 [5]: 1.59 µM (active)
- EC50 [6]: 6.47 µM (inconclusive)
- EC50 [7]: < 0.1 µM (active)
- EC50 [8]: 0.444 µM (active)
- EC50 [9]: 0.201 µM (active)
- EC50 [10]: 0.36 µM (inconclusive)
- EC50 [11]: 0.578 µM (active)
- EC50 [12]: 0.134 µM (active)
- EC50 [13]: 104 µM (active)
- EC50 [14]: < 0.1 µM (active)

SMILES: O=c1/c(=C/c2ccccn2)sc2nc3ccccc3n12
- EC50 [15]: < 0.2 µM (active)
- EC50 [16]: > 50 µM (not active)

SMILES: C/C1=C\[C@@H](C)C/C=C/[C@H]2[C@@H]3O[C@]3(C)[C@@H](C)[C@H]3[C@H](Cc4c[nH]c5ccccc45)NC(=O)[C@]32C(=O)/C=C/C(=O)[C@@H]1O
- EC50 [17]: > 35.4 µM (not active)
- EC50 [6]: 10.7 µM (inconclusive)
- IC50 [18]: 4.76 µM (active)
- EC50 [19]: > 59.6 µM (inactive)
- EC50 [9]: 3.85 µM (inconclusive)
- AC50 [20]: 24.2 µM (active)
- AC50 [21]: 6.44 µM (active)
- EC50 [22]: > 35.4 µM (not active)
- EC50 [10]: 5.67 µM (active)
- EC50 [23]: > 59.6 µM (inactive)
- EC50 [24]: 12 µM (not active)
- AC50 [25]: 5.25 µM (active)
- EC50 [13]: 6.74 µM (inconclusive)
- IC50 [26]: 10.6 µM (not active)
- EC50 [27]: 6.24 µM (inconclusive)
- EC50 [28]: > 35.4 µM (not active)

SMILES: Cc1nc2ccccn2c1-c1csc(Nc2cccc(O)c2)n1
- EC50 [29]: 0.205 µM (active)
- EC50 [6]: 1.55 µM (inconclusive)
- EC50 [9]: 7.42 µM (active)
- EC50 [10]: 1.96 µM (active)
- IC50 [30]: > 13.3 µM (not active)
- EC50 [31]: > 49.7 µM (not active)
- EC50 [13]: 82.4 µM (inconclusive)
- IC50 [32]: 10 µM (active)
- EC50 [33]: > 49.7 µM (not active)
- IC50 [34]: > 50 µM (inactive)

SMILES: Cc1cccc(C#Cc2ccccc2)n1
- AC50 [35]: 20 µM (inconclusive) and 1.26 µM (inconclusive)
- AC50 [36]: 39.8 µM (inconclusive)
